Experimental data published in the CheMixHub ionic liquid set.

Experiment: xn = mol fraction of the nth substance listed

O=S(=O)([N-]S(=O)(=O)C(F)(F)F)C(F)(F)F.[Li+] + O
Details	electrical conductivity [S/m]	viscosity [mPa·s]
267.18 K, 100 kPa, x2 = 0.8271	1.02	–
272.15 K, 100 kPa, x2 = 0.8855	2.04	–
282.32 K, 100 kPa, x2 = 0.7538	0.699	–
283 K, 101 kPa, x1 = 0.2649	0.62	–
288.36 K, 100 kPa, x2 = 0.7538	0.861	–
292.1 K, 100 kPa, x1 = 0.0039	0.966	–
292.3 K, 100 kPa, x2 = 0.8065	1.98	–
293 K, 100 kPa, x1 = 0.25	–	23.6
293 K, 101 kPa, x1 = 0.2649	0.89	69.2
296.88 K, 100 kPa, x2 = 0.8271	2.71	–
298 K, 101 kPa, x1 = 0.005377	1.2	1.11
298 K, 101 kPa, x1 = 0.05933	5.79	3.11
298 K, 101 kPa, x1 = 0.112	–	5.56
298 K, 101 kPa, x1 = 0.1134	4.7	–
298 K, 101 kPa, x1 = 0.1778	2.99	–
298 K, 101 kPa, x1 = 0.2128	2.2	22.22
298 K, 101 kPa, x1 = 0.2639	0.97	–
298 K, 101 kPa, x1 = 0.2649	–	51.3
298.1 K, 101 kPa, x1 = 0.2649	1.04	55.3
298.15 K, 100 kPa, x1 = 0.112	–	5.2
298.15 K, 100 kPa, x1 = 0.1896	–	15.8
298.15 K, 100 kPa, x1 = 0.2333	–	30.7
298.15 K, 100 kPa, x1 = 0.2547	–	42.3
298.15 K, 100 kPa, x1 = 0.2741	–	54.1
301.65 K, 100 kPa, x2 = 0.8271	3.13	–
302.07 K, 100 kPa, x2 = 0.7538	1.38	–
302.07 K, 100 kPa, x2 = 0.9148	5.85	–
302.88 K, 100 kPa, x2 = 0.8495	4.06	–
303 K, 101 kPa, x1 = 0.2649	1.22	45.4
307.05 K, 100 kPa, x2 = 0.8065	2.85	–
307.24 K, 100 kPa, x2 = 0.9761	4.9	–
308.08 K, 100 kPa, x2 = 0.7538	1.61	–
308.15 K, 100 kPa, x1 = 0.112	–	4.3
308.15 K, 100 kPa, x1 = 0.1896	–	11.5
308.15 K, 100 kPa, x1 = 0.2333	–	21.5
308.15 K, 100 kPa, x1 = 0.2547	–	29
308.15 K, 100 kPa, x1 = 0.2741	–	36.1
312.24 K, 100 kPa, x2 = 0.8065	3.3	–
312.86 K, 100 kPa, x2 = 0.6988	0.916	–
313 K, 101 kPa, x1 = 0.2649	1.6	30.9
315.76 K, 100 kPa, x2 = 0.7857	2.85	–
317.41 K, 100 kPa, x2 = 0.8271	4.37	–
317.41 K, 100 kPa, x2 = 0.8495	5.49	–
318.15 K, 100 kPa, x1 = 0.112	–	3.4
318.15 K, 100 kPa, x1 = 0.1896	–	8.6
318.15 K, 100 kPa, x1 = 0.2333	–	15.8
318.15 K, 100 kPa, x1 = 0.2547	–	20.9
318.15 K, 100 kPa, x1 = 0.2741	–	25.5
318.47 K, 100 kPa, x2 = 0.6988	1.07	–
320.96 K, 100 kPa, x2 = 0.7857	3.2	–
321.15 K, 100 kPa, x2 = 0.9761	6.42	–
322.41 K, 100 kPa, x2 = 0.7538	2.29	–
323 K, 101 kPa, x1 = 0.2649	2.04	21.8
327.61 K, 100 kPa, x2 = 0.8271	5.33	–
327.8 K, 100 kPa, x2 = 0.6988	1.36	–
328.15 K, 100 kPa, x1 = 0.112	–	2.8
328.15 K, 100 kPa, x1 = 0.1896	–	6.6
328.15 K, 100 kPa, x1 = 0.2333	–	12
328.15 K, 100 kPa, x1 = 0.2547	–	15.6
328.15 K, 100 kPa, x1 = 0.2741	–	18.7
329.06 K, 100 kPa, x2 = 0.7857	3.73	–
331.74 K, 100 kPa, x2 = 0.8271	5.85	–
331.96 K, 100 kPa, x2 = 0.8065	4.85	–
332.16 K, 100 kPa, x2 = 0.8855	8.87	–
332.58 K, 100 kPa, x2 = 0.9148	10.1	–
333 K, 100 kPa, x2 = 0.7538	2.85	–
333 K, 100 kPa, x2 = 0.8495	7.06	–
333 K, 101 kPa, x1 = 0.2649	2.58	16.2
334.65 K, 100 kPa, x2 = 0.7857	4.15	–
336.52 K, 100 kPa, x2 = 0.8855	9.74	–
339.84 K, 100 kPa, x2 = 0.7857	4.6	–
341.52 K, 100 kPa, x2 = 0.8271	6.77	–
341.94 K, 100 kPa, x1 = 0.0039	2.36	–
342.13 K, 100 kPa, x2 = 0.6601	1.19	–
342.75 K, 100 kPa, x2 = 0.8065	5.73	–
343.17 K, 100 kPa, x2 = 0.7538	3.44	–
347.11 K, 100 kPa, x1 = 0.0039	2.52	–
347.33 K, 100 kPa, x2 = 0.6988	2.11	–
347.53 K, 100 kPa, x2 = 0.9761	9.34	–
347.94 K, 100 kPa, x2 = 0.8495	8.69	–
352.3 K, 100 kPa, x2 = 0.8855	11.8	–
352.92 K, 100 kPa, x2 = 0.8065	6.69	–
356.24 K, 100 kPa, x2 = 0.7857	5.78	–
357.3 K, 100 kPa, x2 = 0.8855	12.1	–
357.7 K, 100 kPa, x2 = 0.9148	13.9	–
